The record followed here is patent publication US10272110B2, “Methods for promoting HSC engraftment” (CHILDREN'S MEDICAL CENTER CORPORATION, priority 2006, dated 2019).

Series [1] has as its system wnt activity. The series is described as follows: wnt reporter TOP:dGFP zebrafish embryos. The series is classed as in vivo. To be noted: vs control. The source says: Clinical experience in patients with APC mutations has shown that inhibition of prostaglandin synthesis results in decreased wnt mediated polyp formation. […] These interactions were examined in vivo using a wnt reporter zebrafish transgenic line, TOP:dGFP. At fifty-percent epiboly, embryos were subjected either to nothing (control), indomethacin, or PGE2, and the amount of wnt signaling activated in the embryo assessed by GFP induction driven from the wnt binding site. Analysis of alterations in GFP expression in the head was analyzed by in situ hybridization. […] FIG. 12.

The test system of series [2] is CFU-S from murine bone marrow cells. Nature of the series: Murine colony-forming units-spleen (CFU-S). The series is classed as in vivo, mouse. The method, then:
Two independent BM samples were treated (n=5/treatment×2 replicates) for each variable. Recipient mice were lethally irradiated with a split dose of 10 Gy. 6×10^4 unfractionated dmPGE2 or control-treated BM cells were injected retro-orbitally into irradiated recipient mice. Spleens were dissected on day eight or twelve, weighed and fixed with Bouin's solution; hematopoietic colonies per spleen were counted. 1×10^5 cells/recipient were transplanted after treatment with the cox inhibitors. FACS sorted ckit^+sca1^+lineage^− BM cells were treated as above and transplanted at a dose of either 100 cells/recipient or 300 cells/recipient.

Series [3] has as its system wnt activity. The series is described as follows: wnt activity in kidney marrow of irradiated Top:dGFP adults. It is filed as in vivo, zebrafish. To be noted: day three post irradiation. On the procedure:
To determine if prostaglandin pathway manipulation can alter wnt activity in the kidney marrow repopulation in the adult, the effects of dmPGE2 and indomethacan was examined further in Top:dGFP lines. […] FIG. 14. To discern whether modulation of prostaglandin signaling can modify the wnt mediated effects on kidney marrow recovery following irradiation, wnt genes were activated by heat shock at 38° C. at two days post irradiation and then. exposure to prostaglandin pathway drugs at one day post heat shock. The hs:wnt8-GFP fish were exposed to indomethacin, while the dkk1, axin, and dnTCF transgenic fish were exposed to dmPGE2. Whole kidney marrow was analyzed by FACS on day ten post-irradiation.

Series [4] deals with peripheral blood and bone marrow WBC. The series is described as follows: 5-Fluorouracil bone marrow injury. The series is classed as in vivo, mouse. On the procedure:
Mice were treated with 5-FU (150 mg/kg) as described. Venezia et al., 2004. […] Peripheral blood was obtained on day seven and day fourteen, quantified and subjected to multilineage FACS analysis using antibodies (eBioscience) to B220/IgM (B-lymphoid), CD4/8 (T-lymphoid), Mac1/Gr1 (myeloid), Ter119/CD71 (erythroid) and ckit/sca1 (stem/progenitor). Mice were sacrificed on day 16, and bone marrow was isolated, quantified and analyzed by FACS.

In series [5] the test system is runx1/cmyb+ AGM HSCs. To be noted: 10 μM. On the procedure:
A chemical genetic screen was conducted to identify novel pathways that modulate definitive HSC formation during zebrafish embryogenesis. FIG. 1. Genes such as runx1 and cmyb, required for HSC development during mammalian hematopoiesis, are expressed in the ventral wall of the dorsal aorta in a region analogous to the mammalian AGM at thirty-six hours post-fertilization (hpf). […] Wild-type embryos were incubated with individual compounds from the three-somite stage until thirty-six hpf. Probes for runx1 and cmyb were combined and utilized to detect HSCs by in situ hybridization.
Wild-type age-matched embryos were arrayed into 48-well plates (˜5 embryos/well) of individual test compounds and exposed from 3-somites until 36 hpf. […] In situ hybridization for runx1 and cmyb was performed to assess HSCs. Compounds were retested at 10 μM, 20 μM, and 50 μM. Stem cell specificity was assessed using flk1 at 36 hpf. PGE2, PGI2, dmPGE2 and all cox inhibitors (Sigma) were used at 10 μM to 20 μM.
Qualitative scoring (# embryos with altered HSCs/# scored) of runx1/cmyb was conducted using the following criteria: Normal/unchanged=continuous line of runx1/cmyb+ endothelial cells and occasional hematopoietic clusters. Decreased/absent=reduction in runx1/cmyb+ cells, including the presence of large gaps in the line of HSCs, isolated positive cells, or absence of expression. Increased/excess=enhancement in runx1/cmyb^+ cells, including many HSC clusters, a thickened line of HSCs, or ectopic expression.

A further series deals with WBM cells. The series is described as follows: Homing of CDFA-labeled WBM to the BM niche. Particulars: twelve hours post-transplantation, p=0.83. The series is classed as in vivo, mouse.
For series [6], the system named is runx1/cmyb+ AGM HSCs. Nature of the series: Morpholino knockdown and dmPGE2 rescue of AGM HSCs. It is filed as in vivo, zebrafish. On the procedure: PGE2 signals through several receptors, EP1-4, all of which are present in the zebrafish genome. Cha et al., 20 Genet. Devel.
For rescue experiments, 3-somite stage MO-injected embryos were exposed to 10 μM dmPGE2.

The test system of the next series is mouse ES cells. The series is described as follows: ES cell hematopoietic differentiation assays (M3434 methylcellulose and OP9 colony assays). It is filed as cell-based. On the procedure:
ES cell hematopoietic differentiation assays were performed as previously described. […] M3434 methylcellulose colony forming and OP9 colony assays were conducted on day 6 and analyzed at […], respectively. Colony type was identified by morphological analysis; duplicate chemical exposures were averaged to determine the reported colony number (n=3 replicates minimum).

The next series deals with AGM HSCs. The series is described as follows: Rescue of AGM HSCs in the mindbomb mutant. It is filed as in vivo, zebrafish. Particulars: preliminary studies. From the text: The mutant mindbomb lacks an E3 ubiquitin ligase for delta, the ligand of notch receptors. As such, mindbomb mutants completely lack notch signaling, and fail to make any hematopoietic stem cells in the AGM. Itoh et al., 4 Devel. Cell 67-82 (2003). Overexpression of runx1 rescues the number of c−myb positive cells in the AGM in mindbomb. This implies that runx is an important target of notch. […] This may be due to a defect in the ability of the cells to respond to prostaglandin E2; notch signaling is likely to be required earlier in the development of the AGM region than prostaglandin E2. Dose response curves with prostaglandin E2 in the mindbomb mutant may shed light on this. Conversely, Notch ICD embryos that have increased stem cell number by 36 hpf may be incubated with Cox inhibitors to see if prostaglandin signaling has a role in mediating AGM HSC upregulation. Other hematopoietic mutants may be studied similarly.

Regarding `CCCCC(C)(C)[C@H](O)/C=C/[C@H]1[C@H](O)CC(=O)[C@@H]1C/C=C\CCCC(=O)O` [dmPGE2, 16,16-dimethyl-PGE2], the “wnt activity (GFP expression) in TOP:dGFP embryos” value in the series with wnt activity [1] is listed as “enhance wnt signaling”. Also, in series [2] (KSL BM cells, 100 or 300 cells per recipient), the “splenic weight and CFU-S12 in recipients of treated KSL cells” value is listed as “significantly increased”. Further, the “CFU-S12 Colony Number” value is given as 6.2 (1.2) in series [2] (Kit+Sca+Lin−, 100 cells transplanted, EtOH 3.0 (1.4)); 11.0 (1.7) in series [2] (Kit+Sca+Lin−, 300 cells transplanted, EtOH 5.0 (1.1)); 15.2 (2.2) in series [2] (Whole Marrow, 6000 cells transplanted, 1 μM/10^6 cells ex vivo, day twelve, EtOH 5.8 (2.6)). In addition, in series [2] (WBM ex vivo 1 μM/10^6 cells), the CFU-S8 colonies result is reported as “enhanced”. Besides, the “number of CFU-S12, increase” value in series [2] (WBM ex vivo 1 μM/10^6 cells, 6×10^4 cells transplanted) is “three-fold”. For the same compound, the “wnt activity (GFP) in kidney marrow of Top:dGFP adults” value in the series with wnt activity [3] is “significantly enhanced wnt activity”. In addition, the “BM recovery following 5FU treatment” value in [4] (administration after 5FU) is listed as “significantly enhanced BM recovery”. For the same compound, the “peripheral blood (day 14) and bone marrow (day 16) WBC counts after 5-FU injury” value in [4] (in vivo exposure, IP, 1 mg/kg) is on record as “enhanced WBC counts”. Further, the “embryos with increase in runx1/cmyb+ AGM HSCs” value in the series on runx1/cmyb+ AGM HSCs [5] amounted to 78%. The “increased runx1/cmyb+ HSCs (# embryos altered/# scored)” value in the series with runx1/cmyb+ AGM HSCs [5] (36 hpf) is on record as 97/124. For the same compound, the “homing to the BM niche vs control” value with WBM cells is reported as “no significant difference”. Moreover, the “rescue of HSCs in cox1 MO embryos (# rescued/# scored)” value in the series on runx1/cmyb+ AGM HSCs [6] (10 μM dmPGE2) is given as 29/52. In the series on runx1/cmyb+ AGM HSCs [6] (10 μM dmPGE2), the “rescue of HSCs in cox2 MO embryos (# rescued/# scored)” value is on record as 43/60. For the same compound, the “rescue of HSCs in PGE2 synthase MO embryos (# rescued/# scored)” value with runx1/cmyb+ AGM HSCs [6] (dmPGE2 addition) is on record as 25/45. In addition, in the series on runx1/cmyb+ AGM HSCs [6] (exogenous dmPGE2), the “reversal of diminished runx1/cmyb expression in EP2 and EP4 MO embryos” value is listed as “not reversed”. For the same compound, the “OP9, definitive erythroid (dE) and granulocyte/monocyte (GM) colonies” value in the series with mouse ES cells (10 μM and 20 μM) is given as “increased in a dose-dependent manner”. Besides, the “toxicity to ES cells” value in the series on mouse ES cells (100 μM) is “toxic”. Moreover, in the series on mouse ES cells (dmPGE2 10 μM, 20 μM, methylcellulose), the “number of multipotent GEMM colonies, enhancement” value was 2.9 fold. Besides, the “rescue of indomethacin inhibition of colony formation” value in the series on mouse ES cells (dmPGE2 10 μM, indomethacin 100 μM, methylcellulose and OP9) was “rescued”. Further, the “rescue of the mindbomb mutant” value with AGM HSCs was “failed to demonstrate any type of rescue”.
